Test results taken from the supplement of paper PMC4862054.

Tests used:
Settings in all cases: 72 h
MDA-MB-436 = system: MDA-MB-436
Outline: (§1)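 Breast cancer cell lines in 20 µl suspension were seeded onto 384-well plates pre-loaded with compound dissolved in 5 µl medium, then incubated 72 h. For viability, 2.5 µl CellTiter-Blue was added for 2 h at 37 °C and fluorescence read at 560/590 nm. Each plate was normalised to vehicle and a positive kill control and checked by Z'-factor. EC50 comes from the fitted percent-inhibition dose-response curve, censored at the highest concentration; rows with zero drug sensitivity score were dropped.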

HCC1599 = system: HCC1599
Outline: as §1

BT-549 = system: BT-549
Outline: as §1

HCC1143 = system: HCC1143
Outline: as §1

CAL-120 = system: CAL-120
Outline: as §1

MFM-223 = system: MFM-223
Outline: as §1

DU-4475 = system: DU-4475
Outline: as §1

CAL-51 = system: CAL-51
Outline: as §1

CAL-85-1 [1] = system: CAL-85-1
Outline: as §1

CAL-148 = system: CAL-148
Outline: as §1

MDA-MB-453 = system: MDA-MB-453
Outline: as §1

HDQ-P1 = system: HDQ-P1
Outline: as §1

CAL-85-1 [2] = system: CAL-85-1; remark: listed apart in the source
Experimental: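 Drug sensitivity and resistance testing (DSRT) of breast cancer cell lines in 384-well plates, 5 concentrations in 10-fold dilutions over a compound-specific 10,000-fold range. After 72 h, cytotoxicity was read by CellTox Green fluorescence and viability by CellTiter-Glo luminescence (multiplexed), normalised to DMSO and benzethonium chloride controls. EC50 is the inflection point of the fitted dose-response curve (bottom asymptote free, so it can be relative for partial curves) and is censored at the highest tested concentration. Rows with DSS 0 (no meaningful response) were excluded.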

Structure (SMILES) | EC50, CellTiter-Blue viability (MDA-MB-436) [nM] | EC50, CellTiter-Blue viability (HCC1599) [nM] | EC50, CellTiter-Blue viability (BT-549) [nM] | EC50, CellTiter-Blue viability (HCC1143) [nM] | EC50, CellTiter-Blue viability (CAL-120) [nM] | EC50, CellTiter-Blue viability (MFM-223) [nM] | EC50, CellTiter-Blue viability (DU-4475) [nM] | EC50, CellTiter-Blue viability (CAL-51) [nM] | EC50, CellTiter-Blue viability (CAL-85-1 [1]) [nM] | EC50, CellTiter-Blue viability (CAL-148) [nM] | EC50, CellTiter-Blue viability (MDA-MB-453) [nM] | EC50, CellTiter-Blue viability (HDQ-P1) [nM] | EC50, CellTox Green (CAL-85-1 [2]) [nM]
COc1ccc(-c2cc3c(C)nc(N)nc3n([C@H]3CC[C@H](OCCO)CC3)c2=O)cn1 | 234 | 121 | 196 | 418 | 193 | 180 | 610 | 140 | 301 | 246 | 72.8 | 66.9 | 4090
Cn1cc(CNCC2CCN(c3ncc(C(=O)NO)cn3)CC2)c2ccccc21 | 279 | 21.9 | 146 | 18.6 | 13.3 | 33.1 | 14.3 | 62.1 | 17.2 | 11.9 | 4.36 | 18.2 | 
O=C(NC[C@H](O)CO)c1ccncc1Nc1ccc(I)cc1F |  | 756 |  | 7.91 | 421 |  | 11.7 | 663 | 1660 | 9.85 | 4980 | 161 | 
O=C(Nc1c[nH]nc1-c1nc2ccc(CN3CCOCC3)cc2[nH]1)NC1CC1 [AT9283] | 998 | 2120 | 798 | 604 | 144 | 886 | 109 | 555 | 901 | 1370 | 245 | 771 | 
COc1cc(CCc2cc(NC(=O)c3ccc(N4CC(C)NC(C)C4)cc3)n[nH]2)cc(OC)c1 (stereo not given) [AZD4547] |  | 270 |  |  |  | 46.6 | 536 | 548 | 529 | 632 | 310 |  | 
CCC/C=C/C=C/C(=O)O[C@H]1/C(=C/C(=O)OC)C[C@H]2C[C@H]([C@@H](C)O)OC(=O)C[C@H](O)C[C@@H]3C[C@H](OC(C)=O)C(C)(C)[C@](O)(C[C@@H]4C/C(=C/C(=O)OC)C[C@H](/C=C/C(C)(C)[C@]1(O)O2)O4)O3 [Bryostatin 1] |  | > 100 |  |  |  |  |  |  | > 100 | > 100 |  |  | 
CO[C@@H](C(=O)N1Cc2[nH]nc(NC(=O)c3ccc(N4CCN(C)CC4)cc3)c2C1)c1ccccc1 [Danusertib] | 1480 | 38.1 | 1130 | 2290 | 335 |  | 538 | 348 | 435 | 21.6 | 40.9 | 427 | 
CS(=O)(=O)N1CCN(Cc2cc3nc(-c4cccc5[nH]ncc45)nc(N4CCOCC4)c3s2)CC1 [GDC-0941] | 2390 | 709 | 1540 | 882 | 990 | 721 | 5650 | 569 | 1070 | 960 | 212 | 156 | 
Cc1c(CN2CCN(C(=O)[C@H](C)O)CC2)sc2c(N3CCOCC3)nc(-c3cnc(N)nc3)nc12 [GDC-0980] | 783 | 103 | 386 | 306 | 181 | 139 | 734 | 198 | 347 | 306 | 98.9 | 139 | 3200
C[C@]12O[C@H](C[C@]1(O)CO)n1c3ccccc3c3c4c(c5c6ccccc6n2c5c31)CNC4=O [Lestaurtinib] | 202 | 201 | 672 | 151 | 65.5 | 133 | 186 | 330 | 284 |  | 174 |  | 356
O=C1c2c(O)ccc(O)c2C(=O)c2c(NCCNCCO)ccc(NCCNCCO)c21 [Mitoxantrone] | 684 | 52.1 | 350 | 11.8 | 15.9 | 522 | 8.91 | 10.7 | 182 | 26.2 | 539 | 58.6 | 
Nc1ccccc1NC(=O)c1ccc(CNc2nccc(-c3cccnc3)n2)cc1 [Mocetinostat] | 2020 | 873 | 2620 | 1770 | 75.7 | 4200 | 757 | 3050 | 1530 | 1790 | 588 | 9490 | 2380
CC[C@@]1(O)C(=O)OCc2c1cc1n(c2=O)Cc2cc3c(CN(C)C)c(O)ccc3nc2-1 [Topotecan] | 110 | 102 | 77.1 | 652 | 79.9 |  | 118 | 362 | 613 | 63.7 | 457 | > 1000 | 913
